Data on twelve molecules can be found in US20140113898A1, “BISARYLSULFONE AND DIALKYLARYLSULFONE COMPOUNDS AS CALCIUM CHANNEL BLOCKERS” (Zalicus Pharmaceuticals Ltd., priority 2010, published 2014).

pIC50: −log10 of the molar value.

Holding throughout (format): cell-based
The target of one experiment is T1, CaV3.1 (Homo sapiens, UniProt O43497).
T1 construct: expressed in transfected cells; host or cells: unnamed doxycycline-inducible cell line
Kind of experiment: High-throughput CaV3.1 T-type FLIPR fluorescent assay. Particulars: Table 5; Fluo-4 FLIPR. The gist of the method:
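Doxycycline-induced CaV3.1 cells were loaded with Fluo-4 at 29 °C and pre-incubated with compound for 20 min at 29 °C in low-Ca2+ buffer (0.001 mM CaCl2, pH 7.2). Calcium entry was triggered by buffer containing 6 mM CaCl2, and Fluo-4 fluorescence was recorded on FLIPR for 3 min. IC50 came from logistic fits.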

A further experiment has as its target T2, CaV2.2 (Homo sapiens, UniProt Q00975).
T2 construct: expressed in transfected cells; host or cells: unnamed doxycycline-inducible cell line
Nature of the experiment: High-throughput CaV2.2/Kir2.3 FLIPR fluorescent assay. Conditions: Table 5; Fluo-4 FLIPR; closed or inactivated state not stated; read-out: FLIPR data CaV2.2. Summed up: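 IC50 was derived by logistic fitting of the FLIPR Fluo-4 signal recorded over 3 min after a 130 mM KCl stimulus. Before stimulation, cells (channel expression induced with doxycycline, 29 °C on assay day) were kept in pH 7.4 buffer with 2 mM KCl for the closed-state format or 12.5 mM KCl for the inactivated-state format.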

The target of a further experiment is T3, CaV3.2 (Homo sapiens, UniProt O95180).
T3 construct: expressed in transfected cells; host or cells: unnamed doxycycline-inducible cell line
Nature of the experiment: High-throughput CaV3.2/Kir2.3 T-type FLIPR fluorescent assay. Particulars: Table 5; Fluo-4 FLIPR; closed or inactivated state not stated. Summed up: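 Doxycycline-induced cells loaded with Fluo-4, preincubated 20 min at 29°C with compound in 2 mM KCl (closed-state) or 7.6 mM KCl (inactivated-state) buffer, pH 7.4. Calcium entry triggered by 12 mM or 14.5 mM KCl respectively; fluorescence read 3 min by FLIPR, IC50 from logistic fit.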

T2 sequence (Q00975 whole entry): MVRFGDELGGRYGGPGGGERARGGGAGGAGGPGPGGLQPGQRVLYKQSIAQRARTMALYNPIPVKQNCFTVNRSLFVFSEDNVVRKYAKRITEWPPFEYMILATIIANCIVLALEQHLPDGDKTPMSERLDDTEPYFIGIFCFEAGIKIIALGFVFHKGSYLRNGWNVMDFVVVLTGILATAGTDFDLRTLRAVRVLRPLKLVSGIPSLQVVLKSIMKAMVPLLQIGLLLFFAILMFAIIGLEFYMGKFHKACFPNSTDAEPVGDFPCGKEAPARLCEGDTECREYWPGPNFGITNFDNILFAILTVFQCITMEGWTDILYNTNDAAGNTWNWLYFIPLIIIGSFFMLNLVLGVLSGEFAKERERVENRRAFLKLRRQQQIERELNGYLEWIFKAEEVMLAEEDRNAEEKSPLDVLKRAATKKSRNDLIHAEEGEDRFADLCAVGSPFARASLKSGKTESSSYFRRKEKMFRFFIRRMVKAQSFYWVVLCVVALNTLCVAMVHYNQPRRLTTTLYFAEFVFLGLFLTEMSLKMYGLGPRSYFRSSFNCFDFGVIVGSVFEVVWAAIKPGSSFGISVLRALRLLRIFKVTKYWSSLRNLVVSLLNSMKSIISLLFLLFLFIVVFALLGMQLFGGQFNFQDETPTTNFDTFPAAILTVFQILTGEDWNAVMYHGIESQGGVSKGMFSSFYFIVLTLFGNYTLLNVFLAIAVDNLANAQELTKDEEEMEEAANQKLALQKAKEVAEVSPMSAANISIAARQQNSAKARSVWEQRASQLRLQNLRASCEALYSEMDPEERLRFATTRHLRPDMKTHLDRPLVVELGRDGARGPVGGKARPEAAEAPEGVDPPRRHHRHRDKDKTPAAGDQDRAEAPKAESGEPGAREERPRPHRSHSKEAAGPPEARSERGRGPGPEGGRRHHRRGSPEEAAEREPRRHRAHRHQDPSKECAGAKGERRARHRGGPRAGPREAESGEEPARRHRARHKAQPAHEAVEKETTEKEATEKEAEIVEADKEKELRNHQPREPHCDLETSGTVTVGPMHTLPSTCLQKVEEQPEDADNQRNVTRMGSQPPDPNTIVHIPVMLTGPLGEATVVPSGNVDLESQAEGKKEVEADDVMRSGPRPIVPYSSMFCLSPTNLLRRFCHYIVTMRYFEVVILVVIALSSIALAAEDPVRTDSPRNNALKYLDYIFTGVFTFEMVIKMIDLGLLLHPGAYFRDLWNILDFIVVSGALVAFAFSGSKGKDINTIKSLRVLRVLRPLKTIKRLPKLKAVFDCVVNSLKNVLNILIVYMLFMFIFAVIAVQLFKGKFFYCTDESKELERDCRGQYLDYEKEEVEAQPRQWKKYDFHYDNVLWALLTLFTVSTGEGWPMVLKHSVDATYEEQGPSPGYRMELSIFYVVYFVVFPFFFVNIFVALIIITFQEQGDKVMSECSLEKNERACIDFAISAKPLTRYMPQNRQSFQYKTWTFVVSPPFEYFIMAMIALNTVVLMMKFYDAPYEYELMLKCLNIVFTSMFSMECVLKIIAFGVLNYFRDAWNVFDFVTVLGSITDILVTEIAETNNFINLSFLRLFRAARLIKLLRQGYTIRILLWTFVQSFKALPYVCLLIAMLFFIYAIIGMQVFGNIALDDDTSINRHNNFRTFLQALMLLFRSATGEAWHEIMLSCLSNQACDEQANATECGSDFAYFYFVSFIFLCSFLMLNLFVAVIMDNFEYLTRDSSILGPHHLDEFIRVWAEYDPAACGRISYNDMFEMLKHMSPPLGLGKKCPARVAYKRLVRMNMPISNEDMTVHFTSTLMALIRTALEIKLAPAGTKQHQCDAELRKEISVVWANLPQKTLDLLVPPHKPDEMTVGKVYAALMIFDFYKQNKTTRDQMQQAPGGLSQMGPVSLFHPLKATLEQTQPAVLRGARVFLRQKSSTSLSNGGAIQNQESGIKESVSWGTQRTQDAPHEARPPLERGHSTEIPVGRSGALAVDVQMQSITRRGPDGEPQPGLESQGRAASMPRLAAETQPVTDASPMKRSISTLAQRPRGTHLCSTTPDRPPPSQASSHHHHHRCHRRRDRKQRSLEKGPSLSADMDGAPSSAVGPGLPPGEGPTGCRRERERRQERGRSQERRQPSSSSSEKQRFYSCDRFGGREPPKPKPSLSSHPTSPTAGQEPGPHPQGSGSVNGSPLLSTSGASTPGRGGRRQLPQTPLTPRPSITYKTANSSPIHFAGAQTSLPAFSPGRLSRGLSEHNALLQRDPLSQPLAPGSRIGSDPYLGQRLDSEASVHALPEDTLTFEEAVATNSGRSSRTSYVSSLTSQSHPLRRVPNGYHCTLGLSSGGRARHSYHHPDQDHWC
T2 sequence (P54284 whole entry partner): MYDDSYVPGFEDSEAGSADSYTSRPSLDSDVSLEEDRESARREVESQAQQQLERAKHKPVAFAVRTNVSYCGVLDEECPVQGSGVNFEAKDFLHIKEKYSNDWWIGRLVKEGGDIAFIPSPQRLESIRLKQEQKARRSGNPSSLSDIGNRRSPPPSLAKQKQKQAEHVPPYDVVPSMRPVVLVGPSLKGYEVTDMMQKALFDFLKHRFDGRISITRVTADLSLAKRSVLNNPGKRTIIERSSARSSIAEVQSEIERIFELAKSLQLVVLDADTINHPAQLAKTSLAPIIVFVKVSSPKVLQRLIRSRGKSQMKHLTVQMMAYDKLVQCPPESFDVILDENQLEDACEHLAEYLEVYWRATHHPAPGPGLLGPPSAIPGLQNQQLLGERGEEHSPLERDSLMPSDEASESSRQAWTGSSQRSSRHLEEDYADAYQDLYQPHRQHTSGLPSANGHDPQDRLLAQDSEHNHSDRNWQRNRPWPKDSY
T2 sequence (P54289 25-946 partner limits assumed): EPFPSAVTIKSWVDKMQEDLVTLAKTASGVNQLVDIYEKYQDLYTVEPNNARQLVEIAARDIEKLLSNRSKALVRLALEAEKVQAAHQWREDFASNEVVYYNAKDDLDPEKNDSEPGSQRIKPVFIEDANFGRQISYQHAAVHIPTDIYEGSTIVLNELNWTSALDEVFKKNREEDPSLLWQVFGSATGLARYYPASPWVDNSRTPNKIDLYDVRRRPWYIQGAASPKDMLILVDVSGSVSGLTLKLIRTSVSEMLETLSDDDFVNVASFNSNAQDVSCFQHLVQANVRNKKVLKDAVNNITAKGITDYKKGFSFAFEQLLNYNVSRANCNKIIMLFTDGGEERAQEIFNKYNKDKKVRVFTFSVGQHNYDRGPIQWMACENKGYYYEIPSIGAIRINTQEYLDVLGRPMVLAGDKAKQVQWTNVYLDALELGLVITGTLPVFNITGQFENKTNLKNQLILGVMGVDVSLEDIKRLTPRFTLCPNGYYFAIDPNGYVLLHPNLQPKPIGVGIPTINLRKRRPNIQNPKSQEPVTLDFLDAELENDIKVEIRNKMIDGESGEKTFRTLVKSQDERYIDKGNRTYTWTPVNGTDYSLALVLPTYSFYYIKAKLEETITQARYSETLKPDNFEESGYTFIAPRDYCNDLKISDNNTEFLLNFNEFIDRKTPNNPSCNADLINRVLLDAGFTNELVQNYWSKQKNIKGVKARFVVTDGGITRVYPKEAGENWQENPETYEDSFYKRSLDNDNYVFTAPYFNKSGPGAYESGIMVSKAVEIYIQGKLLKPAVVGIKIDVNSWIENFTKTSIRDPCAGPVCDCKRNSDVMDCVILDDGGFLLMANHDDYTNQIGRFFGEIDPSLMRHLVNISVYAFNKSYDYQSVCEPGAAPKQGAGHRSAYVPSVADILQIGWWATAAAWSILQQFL
T2 sequence (P54289 947-1103 partner limits assumed): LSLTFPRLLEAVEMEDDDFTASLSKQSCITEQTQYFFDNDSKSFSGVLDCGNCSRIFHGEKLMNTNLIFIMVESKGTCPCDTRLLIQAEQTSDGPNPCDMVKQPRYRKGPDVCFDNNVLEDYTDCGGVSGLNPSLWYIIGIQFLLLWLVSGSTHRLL

`CC(C)(C(=O)N1CCN(c2cc(Cl)cc(Cl)c2)CC1)S(=O)(=O)c1cccc(C(F)(F)F)c1` [Compound 134, 1-(4-(3,5-dichlorophenyl)piperazin-1-yl)-2-methyl-2-((3-(trifluoromethyl)phenyl)sulfonyl)propan-1-one]: the pIC50 on CaV3.1 was 5.06; on CaV2.2, 5.94; against CaV3.2, 5.12.
The matching figures for `CN(CCc1c[nH]c2ccc(F)cc12)C(=O)C(C)(C)S(=O)(=O)c1cccc(C(F)(F)F)c1` [Compound 135, N-(2-(5-fluoro-1H-indol-3-yl)ethyl)-N,2-dimethyl-2-((3-(trifluoromethyl)phenyl)sulfonyl)propanamide]: 5.10, 5.89 and 5.23.
`CC(C)(C(=O)N1CCC(c2ccc(C(F)(F)F)cc2)CC1)S(=O)(=O)c1cccc(C(F)(F)F)c1` [Compound 136, 2-methyl-1-(4-(4-(trifluoromethyl)phenyl)piperidin-1-yl)-2-((3-(trifluoromethyl)phenyl)sulfonyl)propan-1-one]: the pIC50 is 5.36 against CaV3.1, 6.41 on CaV2.2 and 5.61 against CaV3.2.
With `CC(C)(C(=O)NC1CCN(c2ccc(C(F)(F)F)cc2)CC1)S(=O)(=O)c1cccc(C(F)(F)F)c1` [Compound 137, 2-methyl-N-(1-(4-(trifluoromethyl)phenyl)piperidin-4-yl)-2-((3-(trifluoromethyl)phenyl)sulfonyl)propanamide], the pIC50 was 5.34 at CaV3.1, 5.79 on CaV2.2 and 5.52 on CaV3.2.
For `CC(C)(C(=O)NCC(O)c1ccc(C(F)(F)F)cc1)S(=O)(=O)c1cccc(C(F)(F)F)c1` (stereo not drawn) [Compound 140, N-(2-hydroxy-2-(4-(trifluoromethyl)phenyl)ethyl)-2-methyl-2-((3-(trifluoromethyl)phenyl)sulfonyl)propanamide] the same measures were 5.09, 6.39 and 5.29.
For `CC(C)(CNC(=O)C(C)(C)S(=O)(=O)c1cccc(C(F)(F)F)c1)S(=O)(=O)c1cccc(C(F)(F)F)c1` [Compound 149, 2-methyl-N-(2-methyl-2-((3-(trifluoromethyl)phenyl)sulfonyl)propyl)-2-((3-(trifluoromethyl)phenyl)sulfonyl)propanamide] the same measures were 5.41, 6.34 and 5.54.
For `CC(C)(CCNC(=O)C(C)(C)S(=O)(=O)c1cccc(C(F)(F)F)c1)S(=O)(=O)c1cccc(C(F)(F)F)c1` [Compound 150, 2-methyl-N-(3-methyl-3-((3-(trifluoromethyl)phenyl)sulfonyl)butyl)-2-((3-(trifluoromethyl)phenyl)sulfonyl)propanamide] the same measures were 5.75, 6.60 and 5.99.
As to `CC(C)(CCN1CCn2nc(C(F)(F)F)cc2C1=O)S(=O)(=O)c1cccc(C(F)(F)F)c1` [Compound 187, 5-(3-methyl-3-((3-(trifluoromethyl)phenyl)sulfonyl)butyl)-2-(trifluoromethyl)-6,7-dihydropyrazolo[1,5-a]pyrazin-4(5H)-one], the results for the pIC50 against CaV3.1, on CaV2.2 and against CaV3.2 were 5.30, 6.38 and 5.37, respectively.
The matching figures for `CC(C)(CCNC(=O)[C@@H]1C[C@@H](C2CCCCC2)CN1)S(=O)(=O)c1cccc(C(F)(F)F)c1` [Compound 218, (2S,4S)-4-cyclohexyl-N-(3-methyl-3-((3-(trifluoromethyl)phenyl)sulfonyl)butyl)pyrrolidine-2-carboxamide]: 5.25, 6.13 and 5.49.
For `CC(C)(C(=O)NCc1ccc(S(=O)(=O)c2cccc(C(F)(F)F)c2)cc1)S(=O)(=O)c1cccc(C(F)(F)F)c1` [Compound 225, 2-methyl-2-((3-(trifluoromethyl)phenyl)sulfonyl)-N-(4-((3-(trifluoromethyl)phenyl)sulfonyl)benzyl)propanamide] the same measures were 5.85, 7.00 and 6.20.
For `CC(C)(C(=O)NCc1cccc(S(=O)(=O)c2cccc(C(F)(F)F)c2)c1)S(=O)(=O)c1cccc(C(F)(F)F)c1` [Compound 226, 2-methyl-2-((3-(trifluoromethyl)phenyl)sulfonyl)-N-(3-((3-(trifluoromethyl)phenyl)sulfonyl)benzyl)propanamide] the same measures were 5.85, 6.96 and 5.92.
Consider `CC(C)(C(=O)NCc1ccccc1S(=O)(=O)c1cccc(C(F)(F)F)c1)S(=O)(=O)c1cccc(C(F)(F)F)c1` [Compound 227, 2-methyl-2-((3-(trifluoromethyl)phenyl)sulfonyl)-N-(2-((3-(trifluoromethyl)phenyl)sulfonyl)benzyl)propanamide], for which the pIC50 is 6.20 against CaV3.1, 6.40 on CaV2.2 and 6.46 against CaV3.2.
